In ChEMBL document CHEMBL1201862, “PubChem BioAssay data set” (2004):
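Following 48 hours of exposure in 96-well plates, responses at five concentrations were used to interpolate endpoints linearly. GI50 marks 50% less growth.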 Activity calls are given as the source filed them. Cut-off read from the data, not from the text of the source: active = GI50 up to about 1.1 µM and inactive = higher.

How the values were obtained:
Test in all cases: inhibition of tumour cell growth, NCI panel, 48 h
CCRF-CEM = tested on: CCRF-CEM
MDA-MB-231 = tested on: MDA-MB-231
COLO 205 = tested on: COLO 205
U-251 = tested on: U-251
HCT-15 = tested on: HCT-15
SNB-19 = tested on: SNB-19
A498 = tested on: A498
IGROV-1 = tested on: IGROV-1
MOLT-4 = tested on: MOLT-4
SF-539 = tested on: SF-539
NCI/ADR-RES = tested on: NCI/ADR-RES
CAKI-1 = tested on: CAKI-1
HT-29 = tested on: HT-29
786-0 = tested on: 786-0
TK-10 = tested on: TK-10
BT-549 = tested on: BT-549
KM12 = tested on: KM12
NCI-H522 = tested on: NCI-H522
MCF7 = tested on: MCF7
NCI-H226 = tested on: NCI-H226
K562 = tested on: K562
OVCAR-4 = tested on: OVCAR-4
HCT-116 = tested on: HCT-116
SK-MEL-5 = tested on: SK-MEL-5
SF-295 = tested on: SF-295
UO-31 = tested on: UO-31
ACHN = tested on: ACHN
M14 = tested on: M14
EKVX = tested on: EKVX
UACC-257 = tested on: UACC-257
OVCAR-8 = tested on: OVCAR-8
LOX IMVI = tested on: LOX IMVI
OVCAR-3 = tested on: OVCAR-3
MDA-MB-435 = tested on: MDA-MB-435
SW-620 = tested on: SW-620
SK-MEL-2 = tested on: SK-MEL-2
RXF 393 = tested on: RXF 393
SR = tested on: SR
SK-MEL-28 = tested on: SK-MEL-28
MDA-N = tested on: MDA-N
HCC 2998 = tested on: HCC 2998
PC-3 = tested on: PC-3
SN12C = tested on: SN12C
UACC-62 = tested on: UACC-62
HOP-62 = tested on: HOP-62
HL-60 = tested on: HL-60
RPMI-8226 = tested on: RPMI-8226
NCI-H460 = tested on: NCI-H460
HOP-92 = tested on: HOP-92
OVCAR-5 = tested on: OVCAR-5
NCI-H23 = tested on: NCI-H23
DU-145 = tested on: DU-145
Hs-578T = tested on: Hs-578T
A549 = tested on: A549
T47D = tested on: T47D
SF-268 = tested on: SF-268

Question: `CN(C)c1ccc2c3c(c(=O)oc2c1)CCC3` was tested. Which GI50 (CCRF-CEM) did it give?
Answer: 75 µM (inactive)

Question: And the GI50 (MDA-MB-231)?
Answer: 28.7 µM (inactive)

Question: And the GI50 (COLO 205)?
Answer: 33.1 µM (inactive)

Question: What about the GI50 (U-251) of the same compound?
Answer: 88.3 µM (inactive)

Question: What about the GI50 (HCT-15) of the same compound?
Answer: 50.7 µM

Question: And the GI50 (SNB-19)?
Answer: > 100 µM (inactive)

Question: What about the GI50 (A498) of the same compound?
Answer: 29.4 µM (inactive)

Question: What about the GI50 (IGROV-1) of the same compound?
Answer: 84.1 µM (inactive)

Question: What about the GI50 (MOLT-4) of the same compound?
Answer: 27.2 µM (inactive)

Question: And the GI50 (SF-539)?
Answer: > 100 µM (inactive)

Question: And the GI50 (NCI/ADR-RES)?
Answer: 65.8 µM (inactive)

Question: What about the GI50 (CAKI-1) of the same compound?
Answer: 43.8 µM (inactive)

Question: And the GI50 (HT-29)?
Answer: 44.8 µM (inactive)

Question: What about the GI50 (786-0) of the same compound?
Answer: 58.6 µM (inactive)

Question: What about the GI50 (TK-10) of the same compound?
Answer: 65.3 µM (inactive)

Question: And the GI50 (BT-549)?
Answer: > 100 µM (inactive)

Question: And the GI50 (KM12)?
Answer: 41.7 µM (inactive)

Question: What about the GI50 (NCI-H522) of the same compound?
Answer: 26.7 µM (inactive)

Question: And the GI50 (MCF7)?
Answer: 28.2 µM (inactive)

Question: And the GI50 (NCI-H226)?
Answer: 85.5 µM (inactive)

Question: What about the GI50 (K562) of the same compound?
Answer: 69.3 µM (inactive)

Question: What about the GI50 (OVCAR-4) of the same compound?
Answer: > 100 µM (inactive)

Question: What about the GI50 (HCT-116) of the same compound?
Answer: 60.8 µM (inactive)

Question: And the GI50 (SK-MEL-5)?
Answer: 36.8 µM (inactive)

Question: And the GI50 (SF-295)?
Answer: 92.7 µM (inactive)

Question: What about the GI50 (UO-31) of the same compound?
Answer: > 100 µM (inactive)

Question: What about the GI50 (ACHN) of the same compound?
Answer: 58.5 µM (inactive)

Question: What about the GI50 (M14) of the same compound?
Answer: 92.3 µM (inactive)

Question: What about the GI50 (EKVX) of the same compound?
Answer: 9.14 µM (inactive)

Question: And the GI50 (UACC-257)?
Answer: 82.8 µM (inactive)

Question: What about the GI50 (OVCAR-8) of the same compound?
Answer: 64.4 µM (inactive)

Question: What about the GI50 (LOX IMVI) of the same compound?
Answer: 40.6 µM (inactive)

Question: And the GI50 (OVCAR-3)?
Answer: > 100 µM (inactive)

Question: What about the GI50 (MDA-MB-435) of the same compound?
Answer: 57.9 µM (inactive)

Question: What about the GI50 (SW-620) of the same compound?
Answer: > 100 µM (inactive)

Question: What about the GI50 (SK-MEL-2) of the same compound?
Answer: > 100 µM (inactive)

Question: And the GI50 (RXF 393)?
Answer: 64 µM (inactive)

Question: What about the GI50 (SR) of the same compound?
Answer: 42.6 µM (inactive)

Question: What about the GI50 (SK-MEL-28) of the same compound?
Answer: > 100 µM (inactive)

Question: What about the GI50 (MDA-N) of the same compound?
Answer: 97.9 µM (inactive)

Question: What about the GI50 (HCC 2998) of the same compound?
Answer: 54.7 µM (inactive)

Question: And the GI50 (PC-3)?
Answer: 90.4 µM (inactive)

Question: And the GI50 (SN12C)?
Answer: > 100 µM (inactive)

Question: And the GI50 (UACC-62)?
Answer: 29.4 µM (inactive)

Question: And the GI50 (HOP-62)?
Answer: 44 µM (inactive)

Question: And the GI50 (HL-60)?
Answer: 26.9 µM (inactive)

Question: And the GI50 (RPMI-8226)?
Answer: 37.6 µM (inactive)

Question: And the GI50 (NCI-H460)?
Answer: 83.9 µM (inactive)

Question: And the GI50 (HOP-92)?
Answer: 38.7 µM (inactive)

Question: And the GI50 (OVCAR-5)?
Answer: > 100 µM (inactive)

Question: And the GI50 (NCI-H23)?
Answer: 74 µM (inactive)

Question: What about the GI50 (DU-145) of the same compound?
Answer: 80.4 µM (inactive)

Question: And the GI50 (Hs-578T)?
Answer: 36.8 µM (inactive)

Question: What about the GI50 (A549) of the same compound?
Answer: 51.3 µM (inactive)

Question: What about the GI50 (T47D) of the same compound?
Answer: 36.1 µM (inactive)

Question: What about the GI50 (SF-268) of the same compound?
Answer: 34.8 µM (inactive)
